Legend:
[1] = molecular target: T1, PR-B progesterone receptor (Homo sapiens, UniProt P06401); assay: Antagonism at the PR-B progesterone receptor (transactivation assay); assay type: cell-based; details: for IC50: read-out: Antagonistic Activity IC50
T1 sequence (P06401 1-933): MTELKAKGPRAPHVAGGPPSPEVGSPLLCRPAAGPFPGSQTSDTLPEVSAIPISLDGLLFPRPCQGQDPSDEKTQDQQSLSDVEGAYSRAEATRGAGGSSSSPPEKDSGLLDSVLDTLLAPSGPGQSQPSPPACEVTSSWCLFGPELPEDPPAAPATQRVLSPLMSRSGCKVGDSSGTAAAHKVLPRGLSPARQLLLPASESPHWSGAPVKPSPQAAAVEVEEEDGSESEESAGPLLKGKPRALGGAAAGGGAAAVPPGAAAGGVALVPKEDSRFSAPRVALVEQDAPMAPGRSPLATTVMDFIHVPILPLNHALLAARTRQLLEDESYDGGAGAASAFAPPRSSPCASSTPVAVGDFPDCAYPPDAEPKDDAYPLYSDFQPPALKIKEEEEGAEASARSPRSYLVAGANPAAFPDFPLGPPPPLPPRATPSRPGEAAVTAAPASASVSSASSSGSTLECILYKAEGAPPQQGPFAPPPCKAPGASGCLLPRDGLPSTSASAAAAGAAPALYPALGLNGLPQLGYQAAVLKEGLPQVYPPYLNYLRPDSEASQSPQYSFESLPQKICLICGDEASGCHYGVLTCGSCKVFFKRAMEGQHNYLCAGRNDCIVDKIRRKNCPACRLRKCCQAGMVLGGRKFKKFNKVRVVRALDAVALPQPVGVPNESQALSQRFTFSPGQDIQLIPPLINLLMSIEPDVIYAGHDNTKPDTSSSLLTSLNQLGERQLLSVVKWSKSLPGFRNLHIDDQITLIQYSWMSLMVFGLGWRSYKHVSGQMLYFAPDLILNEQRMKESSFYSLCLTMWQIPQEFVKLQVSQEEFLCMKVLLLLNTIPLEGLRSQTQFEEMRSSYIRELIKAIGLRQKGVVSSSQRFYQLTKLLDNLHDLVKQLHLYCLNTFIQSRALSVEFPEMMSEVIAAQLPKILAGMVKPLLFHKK
Protocol: Antagonism at the PR-B Progesterone Receptor
The transactivation assay is carried out as described in WO 02/054064.

[2] = molecular target: T1, PR-B progesterone receptor; assay: Agonism on the PR-B progesterone receptor (transactivation assay); assay type: cell-based; details: for EC50: read-out: Agonistic Activity EC50
Protocol: Agonism on the PR-B Progesterone Receptor
The transactivation assay is carried out as described in Fuhrmann et al. (Fuhrmann U., Hess-Stump H., Cleve A., Neef G., Schwede W., Hoffmann J., Fritzemeier K.-H., Chwalisz K., Journal of Medicinal Chem, 43, 26, 2000, 5010-5016).

| Structure (SMILES) | Antagonistic Activity Efficacy [1] | IC50 [1] | Agonistic Activity Efficacy [2] | EC50 [2] |
| --- | --- | --- | --- | --- |
| C#CC(O)(CC(C)(C)c1ccccc1)C(=O)Nc1ccc2c(=O)onc(C)c2c1 (racemic) [Example 14, rac-6-[2-Ethynyl-2-hydroxy-4-methyl-4-phenylpentanoylamino]-4-methyl-2,3-benzoxazin-1-one] | 53% | 6 nM | 35% | 7 nM |
| Cc1noc(=O)c2ccc(NC(=O)C(O)(C#Cc3ccccc3)CC(C)(C)c3ccccc3)cc12 (racemic) [Example 16, rac-6-[2-Hydroxy-4-methyl-4-phenyl-2-(phenylethynyl)pentanoylamino]-4-methyl-2,3-benzoxazin-1-one] | 82% | 0.7 nM | 13% | 0.5 nM |
| Cc1noc(=O)c2ccc(NC(=O)C(O)(C#Cc3ccccc3C(F)(F)F)CC(C)(C)c3ccccc3)cc12 (racemic) [Example 24, rac-6-[2-Hydroxy-4-methyl-4-phenyl-2-[(2-trifluoromethylphenyl)ethynyl]-pentanoylamino]-4-methyl-2,3-benzoxazin-1-one] | 100% | 2 nM | 0% | – |
| Cc1cc(C)c(C#CC(O)(CC(C)(C)c2ccccc2)C(=O)Nc2ccc3c(=O)onc(C)c3c2)cc1C (racemic) [Example 35, rac-6-[2-[(2,4,5-Trimethylphenyl)ethynyl]-2-hydroxy-4-methyl-4-phenylpentanoylamino]-4-methyl-2,3-benzoxazin-1-one] | 100% | 2 nM | 0% | – |

These reach a lower IC50 [1]. Values come first.

| Antagonistic Activity Efficacy [1] | IC50 [1] | Agonistic Activity Efficacy [2] | EC50 [2] | Structure (SMILES) |
| --- | --- | --- | --- | --- |
| 86% | 0.2 nM | 10% | 0.2 nM | Cc1noc(=O)c2ccc(NC(=O)C(O)(C#Cc3ccccc3)CC3(c4ccccc4Cl)CCCC3)cc12 (racemic) [Example 5, rac-6-{2-[(2-Chlorophenyl)cyclopentyl]methyl-2-hydroxy-4-phenylbut-3-ynoylamino}-4-methyl-2,3-benzoxazin-1-one] |
| 89% | 0.2 nM | 8% | – | COc1ccc(C#CC(O)(CC(C)(C)c2ccccc2)C(=O)Nc2ccc3c(=O)onc(C)c3c2)cc1 (racemic) [Example 18, rac-6-[2-Hydroxy-2-[(4-methoxyphenyl)ethynyl]-4-methyl-4-phenylpentanoylamino]-4-methyl-2,3-benzoxazin-1-one] |
| 88% | 0.03 nM | 7% | – | Cc1ccc(C#CC(O)(CC(C)(C)c2ccccc2)C(=O)Nc2ccc3c(=O)onc(C)c3c2)cc1 (single isomer, unassigned; (-)) [Example 17b, (−)-6-[2-Hydroxy-4-methyl-2-[(4-methylphenyl)ethynyl]-4-phenylpentanoylamino]-4-methyl-2,3-benzoxazin-1-one] |

From US20070010514A1, “Non-steroidal progesterone receptor modulators” (priority 2005, published 2007)
